Literature values in patent US20030021749A1, “Treatment of cancer and other diseases by administration of positron-emitting radiopharmaceuticals” (priority 2000, published 2003).

Details: compared with FDG

SMILES: C[N+](C)(CF)CCO [FCH, fluorine-18 fluorocholine]
- accumulation in normal brain tissue: does not accumulate in normal brain tissue as readily as FDG
- concentration in tumor tissues: higher concentration in tumor tissues
